The record followed here is US10046003B2, “Composition for treating neuropathy, a process and a method of treatment thereof” (INDUS BIOTECH PRIVATE LIMITED, priority 2013, dated 2018).

The test has as its system PSNL rats. In words: Motor nerve conduction velocity, comparison of Test composition vs alcoholic extract of fenugreek vs Pinitol stand-alone in PSNL rat model. The class given is in vivo. On the procedure: To compare efficacy of test Composition with Alcoholic Extract of Fenugreek (30 mg/kg p.o) and Pinitol stand-alone (30 mg/kg) in neuropathy, PSNL rat model is used. The sciatic nerve of the rats is exposed and they received injury by a process where a 4-0 silk suture are inserted into the nerve with ⅜ curve, with a reverse-cutting mini needle and is tightly ligated so that the dorsal ⅓-½ of the nerve thickness are trapped in the ligature. They received only vehicle (Distilled water). Male wistar rats weighing 200-220 g average are used for the study. 500 g of fenugreek seeds is extracted by using alcoholic extraction procedure. This extract is obtained in a dry form by using vacuum evaporation technique. […] When compared with sham operated rats there is significant decrease in nerve conduction velocity in PSNL control rats. […] The data was analysed by one way ANOVA followed by Bonferroni's Multiple Comparison Test, wherein: […]

Take `CO[C@H]1[C@H](O)[C@@H](O)[C@@H](O)[C@H](O)[C@@H]1O` [Pinitol stand-alone, 3-O-methyl-1,2,4 cis-3,5,6 transhexahydroxycyclohexanol]: the “nerve conduction velocity when compared with PSNL control rats” value (30 mg/kg p.o., day 28) is on record as “marginal effect”. In addition, where the note is “PSNL rats, 30 mg/kg p.o. chronic administration, Day 28 (after treatment)”, the “Motor Nerve Conduction Velocity (m/s)” value was 13.97 m/s.
